Test system: IL 1-induced release of neutral protease from rabbit articular chondrocytes
Assay: Inhibition of IL 1-induced release of neutral protease from rabbit articular chondrocytes (azocoll degradation)
Format: cell-based, rabbit (New Zealand White)
Conditions: Oryctolagus cuniculus, Chondrocyte, test compound 10 min. prior to human IL 1, 24 h after IL 1 stimulation, read-out: % Inhibition (I.S.D.)
Procedure: The ability of the compounds of the inventions to inhibit interleukin 1 is measured by the ability of the test compounds to inhibit the IL 1-induced release of neutral protease from rabbit articular chondrocytes.
Male New Zealand White rabbits are anesthetized with 50 mg/kg of ketamine (i.m.) and killed by an intracardiac injection of 3 mls. of Nembutal. The knee joints of both legs are resected and the articular surfaces are exposed. Cartilage slices are obtained using scalpel and are placed in a tissue culture dish (100 mm diameter) containing 10 mls of Hank's balanced salt solution (HBSS). The chondrocytes within the cartilage slices are then liberated by a series of enzyme digestions. The slices are incubated for 10 min. at 37° C. in 0.05% hyaluronidase (Sigma H-3884), rinsed with HBSS and incubated with 0.2% trypsin (Sigma T-2395) for 10 min. at 37° C. The slices are rinsed again and incubated for 10 mins. at 37° C. with 1.2% collagenase (Sigma C-5138). The slices are then rinsed again with HBSS and resuspended in 10 ml of Ham's F-12 medium containing 10% fetal bovine calf serum (FCS) and 0.2% collagenase and incubated overnight at 37° C. in a 5% CO2 incubator. The next day, the medium containing the digested cartilage fragments and liberated chondrocytes is transferred to a 15 ml centrifuge tube and the cells are collected by centrifugation and washed twice and resuspended in Ham's F-12 medium. The cells are then plated into 24-well tissue culture plates (2×10^5 cells/well) and incubated at 37° C. until confluent (usually 4-6 days).
The confluent chondrocytes are rinsed twice with serum-free Ham's F-12 medium and 1 ml is added to each well. Fifty μl of purified human IL 1 (100 Units/ml; Genzyme Corporation, Boston, MA) is then added to stimulate these cells to secrete neutral protease. To measure drug effects, the cells are treated with test compound 10 min. prior to addition of IL 1. The standard screening dose is 10 μM. Twenty-four hours after IL 1 stimulation, supernatant fluids are collected and assayed for neutral protease activity.
The neutral protease activity of chondrocyte supernatant fluids is determined by their ability to degrade an insoluble protease substrate, azocoll (Sigma). Supernatants are treated for 10 min. at room temperature with 350 μM p-aminophenylmercuric acetate to activate the latent enzyme. Three hundred μl of supernatant is then mixed with 500 μl of a 20 mg/ml suspension of azocoll and incubated at 37° C. for 18-24 hrs. with gentle rocking. The mixtures are centrifuged and the amount of substrate hydrolyzed is determined by measuring the absorbance of the supernatant at 520 nm.
Drug effects are calculated as the % change in enzyme activity (absorbance)by supernatants from drug-treated chondrocytes relative to enzyme activity of supernatants from vehicle-treated chondrocytes as follows: [formula]

| SMILES | inhibition at 0.1 µM [%] | inhibition at 1 µM [%] | inhibition at 10 µM [%] |
| --- | --- | --- | --- |
| N#Cc1ccc(N2CCC(N3CCCC3)CC2)cc1 [Example 1, 4-[4-(1-Pyrrolidinyl)-1-piperidinyl]benzonitrile] | 48 | 57 | 26 |
| CS(=O)(=O)c1ccc(N2CCC(N3CCCC3)CC2)cc1 [Example 2, 1-[4-(Methylsulfonyl)phenyl]-4-(1-pyrrolidinyl)piperidine] | 22 | 87 | 91 |
